Assay results as given in US20050282869A1, “Use of a compound in the treatment of sleep disorders and the like, in providing refreshedness on waking and a method for the treatment of grogginess therewith” (priority 2001, published 2005).

Key:
[1] = tested on: patients with temporary sleep disturbance; experiment: Clinical trial: wrist actimetry (SDI, time to sleep onset); format: in vivo, human
Excerpt: (§1) The efficacy of triprolidine in enabling a patient to feel refreshed or alert upon waking after taking triprolidine prior to sleeptime was investigated using patients with a history of sleep disorders and utilising triprolidine prepared in accordance with example 3.
(§2) The study herein utilised the following determination methods:— • (a) Karolinska scale as defined in: Int. J. Neuroscience 52 29-37 (1990); and validation: Sleep 17 (3) 236-41 (1994) • (b) Loughborough Sleep log as defined in: Sleep 17 (2)146-159 (1994); and Sleep 18 (2) 127-134 (1995) • (c) Actimetry—AW4 actimeters (Cambridge Neurotechnology) were worn continuously throughout the study. A button was pressed at night when the subject desired to go to sleep and again in the morning upon waking. The results of the actimeter study were analysed in the manner defined by Home et al (Sleep, 17(2); 146-159).
SDI % was calculated as follows:— [formula]
This is the measure of: • 1. The length of time it took to fall asleep • 2. Any awakenings throughout the sleep period • Expressed as a % of total time spent in bed. Study Objectives • To evaluate the effects of two doses of triprolidine compared with placebo. Study Design
(§3) A multiple-dose, placebo-controlled, parallel-group, double-blind, randomised study investigating the effects of 2.5 mg and 5 mg triprolidine in patients with temporary sleep disturbance.
(§4) Male and Female candidates aged 18 years and above were recruited to one of five research centres by means of local advertising. Candidates were screened by means of a telephone questionnaire and selected candidates invited for interview at the research centre. Key inclusion criteria used to select candidates for the study were: • A record of poor sleep at least 2 nights per week • A record of poor sleep for at least 1 week but not more than 3 months • Sleep disturbance not caused by underlying disease • No excess use of alcohol or drugs • Sleep disturbance affected daytime functioning
(§5) The candidates came to the research centre on Thursday or Friday and were fitted with a wrist actimeter (AW4 from Cambridge Technology) to establish a baseline measure for SDI and were provided with diary cards to record subjective assessments for the Loughborough Sleep Log and the Karolinska Sleepiness Scale. They returned to the investigational site on the Monday and were issued with the study compositions (2.5 mg triprolidine, 5 mg triprolidine or placebo). The investigator telephoned a central randomisation centre where the subject was randomised to a particular treatment group using a dynamic balanced randomisation algorithm. The subject was given three doses of their allocated study medication and instructed to take a single dose of two tablets 20 minutes before they intended to go to sleep on three consecutive evenings, commencing that evening. The diary cards for the Loughborough Sleep Log and Karolinska Sleepiness Scale were asked to be completed on waking.
(§6) 198 candidates completed the study, of whom 178 provided evaluable data. (61 placebo, 60 on 2.5 mg triprolidine and 57 on 5 mg triprolidine. The subjects on 2.5 mg dose took one tablet and placebo those on 5 mg dose took 2×2.5 mg tablets. The subjects on placebo took a dose to match the active treatments (2 tablets).
The study design used 3 groups. On average, the number of individuals in each of the 3 groups (placebo, 2.5 mg triprolidine and 5 mg triprolidine) was 60±10 patients.
In the trial, patients were tested during a seven day period and the results have been analysed for a mean of three days in the middle of this period. The effects of triprolidine at dose level 2.5 mg and 5.0 mg are compared with placebo in table 1.
Generally the treatment groups were well balanced in terms of the demographic data. Unless otherwise mentioned all group data was analysed using ANOVA. […]

volunteers = conditions: single doses 10 mg or 20 mg sustained release at bedtime; cited from earlier work
[2] = tested on: patients with temporary sleep disturbance; experiment: Clinical trial: Loughborough sleep log questionnaire; format: in vivo, human; conditions: for Loughborough Sleep Log: Awoke Very Refreshed or Refreshed Responses, %: % of patients
Excerpt: as §1, §2, §3, §4, §5
Candidates were required to complete a questionnaire 15 minutes after awaking on the feeling of refreshedness assessed on a 5-point scale, the Loughborough sleep log.
as §6
Generally the treatment groups were well balanced in terms of the demographic data. Unless otherwise mentioned all group data was analysed using ANOVA. In two cases, namely, how the patient felt 15 minutes after awakening in the Loughborough Sleep Log and the Karolinska Sleepiness Scale at 20 minutes, the two variables were analysed using ANCOVA by including the weekend and the mean of Friday/Saturday/Sunday night as a covariate. The method was a closed test procedure (Williams' test). Each of the tests were to be conducted at the 5% level. The analysis of the secondary endpoints was similarly conducted using the Student's t-tests on parameter estimates taken from the analysis of variance model presented above. […]

[3] = tested on: patients with temporary sleep disturbance; experiment: Clinical trial: Karolinska 9-point sleepiness scale; format: in vivo, human; conditions: for Karolinska 9-point scale (a) I feel extremely alert, very alert or alert, %: scales 1, 2 or 3
Excerpt: as §1, §2, §3, §4, §5
A daytime sleepiness assessment was also made 20 minutes, 2 hours and 4 hours after awaking on the Karolinska 9-point scale, ie. the sleepiness scale.
as §6
Generally the treatment groups were well balanced in terms of the demographic data. Unless otherwise mentioned all group data was analysed using ANOVA. In two cases, namely, how the patient felt 15 minutes after awakening in the Loughborough Sleep Log and the Karolinska Sleepiness Scale at 20 minutes, the two variables were analysed using ANCOVA by including the weekend and the mean of Friday/Saturday/Sunday night as a covariate. The method was a closed test procedure (Williams' test). Each of the tests were to be conducted at the 5% level. The analysis of the secondary endpoints was similarly conducted using the Student's t-tests on parameter estimates taken from the analysis of variance model presented above.
Karolinska's sleepiness scale is set out below and the results for placebo, 2.5 and 5.0 mg doses of triprolidine are shown in tables 4 and 5. […]

[4] = 2.5 mg, mean of the 3 nights, p<0.05
[5] = both treatments (2.5 mg and 5 mg), every treatment night

Which results are given for Cc1ccc(/C(=C\CN2CCCC2)c2ccccn2)cc1 [triprolidine]?
SDI (%) (Sleep latency onset and Quality of sleep) (Actimeter), Mean ([1]; 2.5 mg dose 20 min before sleep, Mon): 11.33%; SDI (%) (Sleep latency onset and Quality of sleep) (Actimeter), Mean ([1]; 2.5 mg dose, Mean of 3): 11.56%; TTSO (min) (Time to Sleep onset) (Actimeter), Mean ([1]; 2.5 mg dose, Mean of 3): 15.53 min; TTSO (min) (Time to Sleep onset) (Actimeter), Mean ([1]; 2.5 mg dose, Mon): 16.22 min; SDI (%) (Sleep latency onset and Quality of sleep) (Actimeter), Mean ([1]; 2.5 mg dose, Tues): 12.15%; TTSO (min) (Time to Sleep onset) (Actimeter), Mean ([1]; 2.5 mg dose, Tues): 15.62 min; SDI (%) (Sleep latency onset and Quality of sleep) (Actimeter), Mean ([1]; 2.5 mg dose, Wed): 11.2%; SDI compared to placebo ([1]; 2.5 mg, mean of the 3 nights, p<0.01): significantly reduced; sleep latency onset compared to placebo [1, 4]: reduced; SDI (%) (Sleep latency onset and Quality of sleep) (Actimeter), Mean ([1]; 5 mg dose, Mean of 3): 12.23%; TTSO (min) (Time to Sleep onset) (Actimeter), Mean ([1]; 5 mg dose, Mean of 3): 16.93 min; SDI (%) (Sleep latency onset and Quality of sleep) (Actimeter), Mean ([1]; 5 mg dose, Mon): 11.72%; TTSO (min) (Time to Sleep onset) (Actimeter), Mean ([1]; 5 mg dose, Mon): 16.16 min; SDI (%) (Sleep latency onset and Quality of sleep) (Actimeter), Mean ([1]; 5 mg dose, Tues): 12.71%; TTSO (min) (Time to Sleep onset) (Actimeter), Mean ([1]; 5 mg dose, Tues): 17.88 min; SDI (%) (Sleep latency onset and Quality of sleep) (Actimeter), Mean ([1]; 5 mg dose, Wed): 11.81%; TTSO (min) (Time to Sleep onset) (Actimeter), Mean ([1]; 5 mg dose, Wed): 16.36 min; SDI compared with placebo [1, 5]: reduced; sleep latency onset compared with placebo [1, 5]: reduced; sleep onset latency compared with placebo (volunteers): did not significantly alter; total sleep time compared with placebo (volunteers): no effect; wakefulness during sleep compared with placebo (volunteers): no effect; no of times woke up (Loughborough sleep log), Mean ([2]; 2.5 mg dose, Mean of 3): 1.22; time to fall asleep (min) (Loughborough sleep log), Mean ([2]; 2.5 mg dose, Mean of 3): 23.93 min; no of times woke up (Loughborough sleep log), Mean ([2]; 2.5 mg dose, Mon): 1.18; time to fall asleep (min) (Loughborough sleep log), Mean ([2]; 2.5 mg dose, Mon): 23.67 min; Loughborough Sleep Log: Awoke Very Refreshed or Refreshed Responses, % ([2]; 2.5 mg dose, Monday): 23%; no of times woke up (Loughborough sleep log), Mean ([2]; 2.5 mg dose, Tues): 1.37; time to fall asleep (min) (Loughborough sleep log), Mean ([2]; 2.5 mg dose, Tues): 24.44 min; Loughborough Sleep Log: Awoke Very Refreshed or Refreshed Responses, % ([2]; 2.5 mg dose, Tuesday): 23%; no of times woke up (Loughborough sleep log), Mean ([2]; 2.5 mg dose, Wed): 1.11; time to fall asleep (min) (Loughborough sleep log), Mean ([2]; 2.5 mg dose, Wed): 20.95 min; feeling of refreshedness 15 minutes after waking vs placebo (Loughborough sleep log) [2, 4]: more refreshed; no of times woke up (Loughborough sleep log), Mean ([2]; 5 mg dose, Mean of 3): 1.42; time to fall asleep (min) (Loughborough sleep log), Mean ([2]; 5 mg dose, Mean of 3): 26.5 min; no of times woke up (Loughborough sleep log), Mean ([2]; 5 mg dose, Mon): 1.49; time to fall asleep (min) (Loughborough sleep log), Mean ([2]; 5 mg dose, Mon): 22.02 min; no of times woke up (Loughborough sleep log), Mean ([2]; 5 mg dose, Tues): 1.42; time to fall asleep (min) (Loughborough sleep log), Mean ([2]; 5 mg dose, Tues): 32.08 min; Loughborough Sleep Log: Awoke Very Refreshed or Refreshed Responses, % ([2]; 5 mg dose, Tuesday): 8.2%; no of times woke up (Loughborough sleep log), Mean ([2]; 5 mg dose, Wed): 1.39; time to fall asleep (min) (Loughborough sleep log), Mean ([2]; 5 mg dose, Wed): 24.24 min; Loughborough Sleep Log: Awoke Very Refreshed or Refreshed Responses, % ([2]; 5 mg dose, Wednesday): 14.8%; individuals with response of sleeping extremely well or very well (morning log of the Loughborough sleep log) ([2]; dose not stated): over 35%; (b) I feel (i) sleepy, [and need to make] some effort or (ii) very sleepy, a great effort to keep awake, % ([3]; 2.5 mg dose, Wednesday, Karolinska scales 8 and 9, on waking): 6.5%; Karolinska 9-point scale (a) I feel extremely alert, very alert or alert, % ([3]; 2.5 mg dose, Wednesday, on waking): 21.0%; percentage of people feeling alert, very alert or extremely alert on waking vs placebo (Karolinska log) ([3]; 2.5 mg, mean of the 3 nights): greater percentage; percentage of people feeling sleepy or very sleepy on waking vs placebo (Karolinska log) ([3]; 2.5 mg, mean of the 3 nights): lower percentage; residual hangover effects/morning grogginess ([3]; 2.5 mg, mean of the 3 nights): no evidence of residual hangover effects/morning grogginess; Karolinska 9-point scale (a) I feel extremely alert, very alert or alert, % ([3]; 5 mg dose, Monday, on waking): 6.3%; Karolinska 9-point scale (a) I feel extremely alert, very alert or alert, % ([3]; 5 mg dose, Tuesday, on waking): 9.5%
